Converted amounts (≈) assume the structure as drawn.
What was measured:
[1] = Aqueous kinetic solubility in PBS pH 7.4; type: physicochemical; conditions: phosphate buffered saline (PBS); aqueous kinetic solubility from 10 mM DMSO solution in PBS pH 7.4; target concentration 250 μM (final DMSO 2.5%)
Experimental: 1. Aqueous kinetic solubility.
30 µL aliquots of 10 mM DMSO stock solution of the test compound were incubated in Phosphate
Buffered Saline (PBS) at pH 7.4 at 25°C for 24h. After centrifugation the dissolved compound in the
supernatant was quantified by LC-MS/MS.
Aqueous kinetic solubility was determined by UV quantification at
215 nm. […]

NKCC1 = biological target: T1, NKCC1 (Mus musculus, UniProt P55012); assay: Ca2+ influx assay in immature primary neuronal cultures (indirect measure of NKCC1 inhibition); type: cell-based; conditions: cultured neurons, 3 DIV
T1 construct: primary neuronal cultures of dissociated hippocampal neurons were prepared from E18 C57BL/6J mice; endogenous in cells; host or cells: primary hippocampal neurons from E18 C57BL/6J mice, 3 DIV
T1 sequence (P55012 1-1205): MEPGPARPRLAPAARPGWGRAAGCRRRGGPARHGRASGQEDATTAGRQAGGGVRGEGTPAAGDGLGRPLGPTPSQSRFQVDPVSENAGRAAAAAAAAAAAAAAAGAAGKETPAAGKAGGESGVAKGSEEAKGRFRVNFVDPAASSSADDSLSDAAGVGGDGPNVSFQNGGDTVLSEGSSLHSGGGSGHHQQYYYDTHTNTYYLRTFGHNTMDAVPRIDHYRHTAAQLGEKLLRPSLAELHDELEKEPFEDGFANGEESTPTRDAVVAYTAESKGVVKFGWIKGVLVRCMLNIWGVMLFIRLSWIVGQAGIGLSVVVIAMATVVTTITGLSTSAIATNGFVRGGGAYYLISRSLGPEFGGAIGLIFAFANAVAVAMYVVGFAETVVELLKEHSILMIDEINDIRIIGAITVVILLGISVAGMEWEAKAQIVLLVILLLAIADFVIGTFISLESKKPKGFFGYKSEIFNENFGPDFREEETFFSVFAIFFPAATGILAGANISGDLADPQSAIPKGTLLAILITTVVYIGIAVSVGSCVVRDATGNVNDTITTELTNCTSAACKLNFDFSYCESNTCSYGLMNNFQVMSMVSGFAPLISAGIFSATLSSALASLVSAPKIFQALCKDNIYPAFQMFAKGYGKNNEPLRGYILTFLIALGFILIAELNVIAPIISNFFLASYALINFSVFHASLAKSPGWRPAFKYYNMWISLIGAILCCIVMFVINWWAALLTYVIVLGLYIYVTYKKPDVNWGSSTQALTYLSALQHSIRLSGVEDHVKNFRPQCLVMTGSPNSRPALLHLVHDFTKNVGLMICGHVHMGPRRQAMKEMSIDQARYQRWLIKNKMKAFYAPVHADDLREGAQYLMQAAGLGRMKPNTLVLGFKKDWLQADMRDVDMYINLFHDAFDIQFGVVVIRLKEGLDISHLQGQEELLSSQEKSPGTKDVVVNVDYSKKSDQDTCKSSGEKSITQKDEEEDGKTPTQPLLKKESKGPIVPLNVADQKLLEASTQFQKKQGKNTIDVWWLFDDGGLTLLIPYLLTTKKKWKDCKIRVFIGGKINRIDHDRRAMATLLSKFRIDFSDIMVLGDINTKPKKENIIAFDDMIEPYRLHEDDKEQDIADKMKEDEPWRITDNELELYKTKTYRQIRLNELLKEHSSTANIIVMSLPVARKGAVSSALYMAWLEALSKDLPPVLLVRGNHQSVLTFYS
Experimental: To perform the Ca^2+-influx assay, primary neuronal cultures of dissociated hippocampal neurons were prepared from E18 C57BL/6J mice (Charles River) as previously described[56] and plated in 96-well black-walled, clear-bottomed plates coated with poly-L-lysine (Sigma; 0.1 mg/mL in 100 mM borate buffer, pH 8.5) at a density of 30,000 cells per well. Neurons were maintained in neurobasal medium supplemented with 2% B-27 supplement, 0.5 mM glutamine, 50 U/mL of penicillin, and 50 μg/mL of streptomycin (all from Gibco). The cells were incubated at 37 °C and 5% CO2 until DIV 3 for the Ca^2+ influx assay.
At 3 DIVs, neurons were loaded with 2.5 μM of the Ca^2+-sensitive day Fluo4-AM (Invitrogen) in extracellular solution (145 mM NaCl, 5 mM KCl, 10 mM HEPES, 5.55 mM glucose, 1 mM MgCl2, and 2 mM CaCl2, pH 7.4). After 15 min, cells were washed twice with extracellular solutions and treated with bumetanide (as a positive control), DMSO (as a negative control), or each of our compounds at 10 μM or 100 μM, in extracellular solution for 15 min. Plates were then loaded onto a Spark (Tecan) multiplate reader equipped with an automatic liquid injector system, and Fluo4 fluorescence was recorded with excitation at 485 nm and emission at 535 nm. For each well, fluorescence was first recorded for 20 s of the baseline and for 20 s after delivery of GABA (100 μM). To evaluate neuronal viability, fluorescence was recorded for an additional 20 s after delivery of a depolarizing KCl stimulus (90 mM final concentration in wells). To represent the fluorescent traces in time, we normalized the fluorescence value for each time point to the average of the fluorescence value for the first 20 s of the baseline (ΔF/F0). To quantify the average effects as represented by the bar plots, we measured the maximum peak increase in ΔF/F0 fluorescence upon GABA application normalized over the maximum peak increase in ΔF/F0 fluorescence upon KCl application. We then presented in the figures all the data as a percentage of the fluorescence increase versus the value of the control DMSO.

[2] = In vitro metabolic stability in mouse liver microsomes; conditions: tissue homogenate, pH 7.4
Experimental: 1. Aqueous kinetic solubility. […]
3. In vitro mouse microsomial stability. […]
microsomes (Sekisui Xenotech, LCC), 0.1M Tris-HCl buffer (pH 7.4), and 10% DMSO. The final […]
After pre-incubation, the cofactors (NADPH, G6P, G6PDH, MgCl2 pre-dissolved in 0.1M Tris-HCl) were added to the incubation mixture and the incubation was continued at 37 °C for 1h. At each time point (0, 5, 15, 30, 60 min), 30µL of incubation mixture was diluted with 200 µL cold acetonitile spiked with 200 nM of warfarin as internal standard, followed by centrifugation at 3500 g for 30 min. The supernatant was further diluted with H2O (1:1) for analysis.
An aliquot of 200 µl of the supernatant was removed, and the concentration of the test compound was […]
quantified by LC-MS/MS. The percentage of the test compound remaining at each time point relative […]
to t=0 was calculated. The half-lives (t½) were determined by a one-phase decay equation using a […]
non-linear regression of compound concentration vs time.

[3] = In vitro mouse plasma stability; type: in vitro ADME; conditions: mouse plasma at 37 °C; incubated at 5 μM (final DMSO 0.1%); read-out: t1/2 plasma

Structure (SMILES)	solubility at 24 h [1] [µM]	inhibition at 10 µM (NKCC1) [%]	inhibition at 100 µM (NKCC1; 100 μM) [%]	half-life at 5 μM [2] [h]	half-life at 5 μM [3] [h]	Inhibition 100 μM Ca2+ influx (%) (NKCC1; 100 μM)
CNS(=O)(=O)c1cc(C(=O)O)ccc1NCCCCCCCC(F)(F)F [Compound 32, 3-(-N,N-Methylsulfamoyl)-4-(8,8,8-trifluorooctylamino)benzoic Acid]	242 (≈ 95.9 µg/mL)	9.3 ± 1.9	40.4 ± 4.8	> 1	> 2	–
O=C(O)c1ccc(NCCCCCCCC(F)(F)F)c(S(=O)(=O)N2CCCC2)c1 [Compound 33, 3-Pyrrolidin-1-ylsulfonyl-4-(8,8,8-trifluorooctylamino)benzoic Acid]	66 (≈ 28.8 µg/mL)	31.7 ± 4.1	50.9 ± 6.7	> 1	> 2	–
O=C(O)c1ccc(NCCCCCCCC(F)(F)F)c(S(=O)(=O)N2CCCCC2)c1 [Compound 34, 3-(1-Piperidylsulfonyl)-4-(8,8,8-trifluorooctylamino)benzoic Acid]	13 (≈ 5.86 µg/mL)	49.2 ± 4.5	–	> 1	> 2	–
O=C(O)c1ccc(NCCCCCCCC(F)(F)F)c(S(=O)(=O)N2CCOCC2)c1 [Compound 35, 3-Morpholinosulfonyl-4-(8,8,8-trifluorooctylamino)benzoic Acid]	244 (≈ 110 µg/mL)	16.5 ± 2.7	67.8 ± 2.8	> 1	> 2	67.7 ± 2.8
O=C(O)c1ccc(NCCCCCCCC(F)(F)F)c(S(=O)(=O)NC2CCCC2)c1 [Compound 36, 3-(-N-Cyclopentylsulfamoyl)-4-(8,8,8-trifluorooctylamino)benzoic Acid]	223 (≈ 100 µg/mL)	45.3 ± 5.3	–	> 1	> 2	–
O=C(O)c1ccc(NCCCCCCCC(F)(F)F)c(S(=O)(=O)NC2CCCCC2)c1 [Compound 37, 3-(-N-Cyclohexylsulfamoyl)-4-(8,8,8-trifluorooctylamino)benzoic Acid]	9 (≈ 4.18 µg/mL)	49.5 ± 4.5	–	> 1	> 2	–
O=C(O)c1ccc(NCCCCCCCC(F)(F)F)c(S(=O)(=O)NC2CCOCC2)c1 [Compound 38, 3-(N-(Tetrahydro-2H-pyran-4-yl)sulfamoyl)-4-((8,8,8-trifluorooctyl)amino)benzoic Acid]	244 (≈ 114 µg/mL)	7.1 ± 2.2	36.2 ± 3.4	> 1	> 2	–
CN(C)S(=O)(=O)c1cc(C(=O)O)c(Cl)cc1NCCCCCCCC(F)(F)F [Compound 39, 2-Chloro-5-(N,N-dimethylsulfamoyl)-4-((8,8,8-trifluorooctyl)amino)benzoic Acid]	241 (≈ 107 µg/mL)	19.4 ± 2.8	59.6 ± 3.1	> 1	> 2	–
COc1cc(NCCCCCCCC(F)(F)F)c(S(=O)(=O)N(C)C)cc1C(=O)O [Compound 41, 5-(N,N-Dimethylsulfamoyl)-2-methoxy-4-((8,8,8-trifluorooctyl)amino)benzoic Acid]	188 (≈ 82.8 µg/mL)	14.2 ± 2	45.7 ± 4.5	> 1	> 2	–
CCOc1cc(NCCCCCCCC(F)(F)F)c(S(=O)(=O)N(C)C)cc1C(=O)O [Compound 42, 5-(N,N-Dimethylsulfamoyl)-2-ethoxy-4-((8,8,8-trifluorooctyl)amino)benzoic Acid]	43 (≈ 19.5 µg/mL)	13.4 ± 1.1	46.6 ± 3.8	> 1	> 2	–
CN(C)S(=O)(=O)c1cc(C(=O)O)c(OC2CCCC2)cc1NCCCCCCCC(F)(F)F [Compound 43, 2-(Cyclopentyloxy)-5-(N,N-dimethylsulfamoyl)-4-((8,8,8-trifluorooctyl)amino)benzoic Acid]	11 (≈ 5.44 µg/mL)	27.4 ± 7	–	0.55	> 2	–

From paper PMC8311653, “Design, Synthesis, In Vitro and In Vivo Characterization of Selective NKCC1 Inhibitors for the Treatment of Core Symptoms in Down Syndrome” (Journal of Medicinal Chemistry, 2021)
